The record followed here is patent US20180098969A1, “HODGKIN LYMPHOMA THERAPY” (Purdue Pharmaceutical Products L.P., priority 2016, published 2018).

Assay [1] relates to Hodgkin lymphoma cell lines. As to the kind of experiment: Mitotic index and chromosomal aberrations. The format is cell-based, human. On the procedure:
(§1) The mitotic index and chromosomal aberrations for each of the cell lines were evaluated after treatment with either 20 μmol or 10 μmol EDO-S101 in DMSO. Each cell line was cultured at 37° C. in the presence of RPMI 1640 supplemented with 10% FCS and antibiotics. Colcemid (0.1 ug/ml) was added 2 h before harvesting and slides with chromosomes in metaphase were prepared following the standard methanol/acetic acid (3/1, v/v) procedure. The slides were stored at −20° C. until use.
(§2) FISH was performed using a combination of standard procedures from the recommended protocols for chromosome analysis, following telomere and centromere staining, using PNA probes. In all, 100 metaphases were scored per in vitro dose exposure.
(§3) The mitotic index was determined by measurement of the sum of all cells in prophase, metaphase, anaphase and telophase divided by the total number of cells.

Another assay has as its system KMH2 cell line. As to the kind of experiment: Mitotic index and chromosomal aberrations. The format is cell-based, human. On the procedure: as §1, §2, §3
The subject of the next assay is L540 cell line. As to the kind of experiment: Mitotic index and chromosomal aberrations. The format is cell-based, human. How it is done:
as §1, §2, §3

For the next assay, the system named is L428 cells. As to the kind of experiment: Cytogenetic investigation of cells from xenografted mice. The format is in vivo, NSG mice. The note with it: different doses including single 60 mg/kg. How it is done:
Separated cells were cultured in the presence of RPMI 1640 supplemented with 10% Fetal Calf Serum (FCS) and antibiotics, colcemid (0.1 μg/ml) added 2 h before harvesting, and the slides with metaphase chromosomes prepared following the standard methanol/acetic acid (3/1, v/v) procedure.
Four new cell lines were generated after one month of in vitro culture following 24 hour of exposure to EDO-S101. Fluorescence in situ hybridysation (FISH) was performed using a combination of standard procedures from the recommended protocols for chromosomal analysis, following telomere and centromere staining, using peptide nucleic acid (PNA) probes in order to detect unstable chromosomal aberrations and to delimit the chromosome territory. M-FISH was performed using multi-FISH probes (Metasystems GmbH, Altlussheim, Germany), according to the manufacturer's recommendations on the same slide. Images of hybridized metaphases were captured using a charge coupled device camera (Zeiss, Thornwood, N.Y.) coupled to a Zeiss Axioplan microscope and processed using ISIS software (Metasystems).
The ocular tumour masses were harvested, as well as cells which infiltrated the liver. Five new cell lines were established from ocular tumours and the livers of both control mice (PBS or vehicle). […]

`Cn1c(CCCCCCC(=O)NO)nc2cc(N(CCCl)CCCl)ccc21` [EDO-S101]: the metaphases observed entry in assay [1] (10 μmol) is “only a few metaphases of poor quality”; in assay [1] (20 μmol, any cell line), “No metaphases were observed”. Also, the “sensitivity in mitotic index assay” value in assay [1] (all cell lines, 24 h of treatment) is “remarkably high sensitivity”. The mitotic index result with KMH2 cell line and with L540 cell line was “very low mitotic index” each time. For the same molecule, the “chromosomal aberrations in metaphase” value in the assay on KMH2 cell line (telomere and centromere staining) is “numerous chromosomal aberrations”. Further, the “metaphases or cell lines from cells of treated mice” value with L428 cells is listed as “not possible to obtain either metaphases from direct culture or establish cell lines”.
